In paper PMC12300743, “Unveiling the Solvent Effect: DMSO Interaction with Human Nerve Growth Factor and Its Implications for Drug Discovery” (Molecules, 2025):

Target: T1, hNGF (Homo sapiens, UniProt P01138)
T1 construct: gene NGF; homodimer; amine-coupled to the GCI chip
Experiment: grating-coupled interferometry (Creoptix WAVE-delta, waveRAPID), hNGF immobilised by amine coupling
Type: binding

T1 sequence (P01138 122-239): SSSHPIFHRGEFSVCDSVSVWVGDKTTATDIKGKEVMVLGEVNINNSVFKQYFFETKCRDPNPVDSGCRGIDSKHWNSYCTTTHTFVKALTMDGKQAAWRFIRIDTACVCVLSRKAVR

Kd: ~2100 µM
SMILES: C[S+](C)[O-] [DMSO]
